Legend:
[1] = biological target: T1, TRPA1 (Homo sapiens, UniProt O75762); experiment: TRPA1 antagonist FLIPR assay (functional, HEK293 cell-based)
T1 construct: host or cells: HEK293
Procedure: The TRPA1 agonist and antagonist fluorescent imaging plate reader (FLIPR) Assay (functional, HEK293 cell-based) was performed at Eurofins Panlabs, Inc. (St. Charles, MO, USA). The compounds were prepared in assay buffer to the final dilutions 10 and 50 µM. In each experiment, the respective reference compounds were tested: allyl isothiocyanate (the agonist assay) and ruthenium red (the antagonist assay). The […] assays were conducted on a FLIPR^TETRA instrument where the test compounds, vehicle controls, and reference agonists or antagonists were added to the assay plate after a fluorescence baseline was established. The agonist or antagonist incubation during the assay was for a total of 180 s and was used to assess each compound’s ability to activate or inactivate TRPA1. All plates were subjected to appropriate baseline corrections. Once baseline corrections were processed, maximum fluorescence values were exported, and data was manipulated to calculate percentage activation or percentage inhibition. Results showing activity greater than 25% were considered to represent significant effects of test compounds. Experiments were run three times, […].

[2] = system: MRC-5 cells; experiment: TGF-β1-induced collagen gel contraction assay; format: cell-based, human; settings: 10 µM, 1 h pre-incubation, 6 h TGF-β1; compared to TGF-β1 alone
Procedure: A collagen cell contraction assay was performed according to manufactures’ instructions (Cell Biolabs, INC., San Diego, CA, USA). Briefly, MRC-5 was harvested and mixed with a collagen solution. After polymerization, collagen gel lattices were cultured for two days, during which mechanical tension develops. Before releasing the stressed matrix, MRC-5 cells were pre-treated with study compounds (10 µM) for 1 h. Then collagen gels were gently released from the sides of the culture dishes and contraction in the presence of study compounds, and TGF-β1 was initiated. The collagen gel size was monitored at various time points and quantified with the Fiji ImageJ Software (National Institutes of Health, Bethesda, MD, USA, version 1.52q). The experiments were run three times.

[3] = system: TGF-β1-induced MRC-5 cells; experiment: Immunofluorescence count of α-SMA positive myofibroblasts; format: cell-based, human; settings: 10 µM, 48 h TGF-β1 5 ng/mL
Procedure: For immunocytochemical labeling, MRC-5 cells were seeded on glass coverslips. Study compounds (10 µM) were added 1 h before TGF-β1 treatment, and analysis was performed after 1 h (p-Smad-2 and p-CREB detection) or 48 h (α-SMA detection) of incubation. Cells were fixed in methanol or 4% formaldehyde solution, permeabilized in 0.2% or 0.1% Triton X-100 solution (for p-Smad-2 and p-CREB or α-SMA, respectively). After incubation in blocking solution the following primary antibodies: rabbit polyclonal, anti-phospho-Smad-2 (Ser465, Ser467) antibody (#44-244G, Thermo Fisher Scientific, Waltham, MA, USA); rabbit polyclonal, anti-phospho-CREB1 (Ser133) antibody (#orb213775, Biorbyt, Cambridge, United Kingdom); mouse monoclonal, anti-α-SMA antibody (#MA5-11547, Thermo Fisher Scientific, Waltham, MA, USA) and secondary antibodies: goat anti-rabbit Alexa Fluor 546 conjugated antibody and goat anti-mouse Alexa Fluor 488 conjugated antibody (#A-11010 and #A-11001, respectively, Invitrogen, Carlsbad, CA, USA) were used. Nuclei were counterstained with Hoechst 33342 dye (Thermo Fisher Scientific, Waltham, MA, USA). Slides were mounted in ProLong™ Glass Antifade Mountant (Invitrogen, Carlsbad, CA, USA) and analyzed using Leica DMiL LED Fluo microscope (for α-SMA and p-CREB visualization, 40× objective) or Leica DMi8 with Thunder Imaging System (for p-Smad-2 visualization, 40× objective), all equipped with LAS-X Software (Leica Microsystems GmbH, Wetzlar, Germany). Experiments were run four times using five randomly selected fields of view, at the same fluorescent time exposure and in a blind-folded manner.

[4] = system: MRC-5 cells; experiment: Intracellular calcium measurements (Fluo-4); format: cell-based, human
Procedure: MRC-5 cells were briefly washed with NaHEPES buffer (NaHEPES buffer was prepared as follows: NaCl 140 mM, KCl 4.7 mM, HEPES 10 mM, MgCl2 1 mM, glucose 10 mM; pH 7.3) and then loaded with 1 µM Fluo-4 AM (Thermo Fisher Scientific, Waltham, MA, USA) for 1 h, 37 °C in NaHEPES. After the incubation, the cells were washed again with fresh NaHEPES and used for experiments in a flow chamber perfused with NaHEPES-based extracellular solution supplemented with 1 mM CaCl2. All experiments were carried out at room temperature using Zeiss LSM 880 confocal microscope (40× oil objective), excitation was set to 488 nm, and the emission was between 500 and 600 nm. Each series of images was recorded at 256 × 256-pixel resolution, two consecutive frames were averaged, and the interval between the averaged images was set at 2 s. Fluorescence signals were plotted as F/F0, where F0 was baseline fluorescence defined as the averaged signal from ten consecutive baseline images.

[5] = system: TGF-β1-induced MRC-5 cells; experiment: Protein kinase A activity; format: cell-based, human; settings: 10 µM 30 min, then TGF-β1 30 min
Procedure: Protein Kinase A (PKA) activity in MRC-5 cells was determined using a PKA Colorimetric Activity Kit (Invitrogen, Carlsbad, CA, USA) according to the manufacturer’s protocol. MRC-5 cells were seeded in standard culture medium, and after 48 h they were serum-starved for 2 h in HBSS, followed by the addition of study compounds (10 µM) and incubation for 30 min. Finally, TGF-β1 was administered, and the samples were incubated for an additional 30 min. Whole cell lysates were used in the assay. The amount of PKA was normalized to the total protein content in each sample. The experiments were run two times in duplicates.

T1 sequence (O75762 whole entry, species assumed): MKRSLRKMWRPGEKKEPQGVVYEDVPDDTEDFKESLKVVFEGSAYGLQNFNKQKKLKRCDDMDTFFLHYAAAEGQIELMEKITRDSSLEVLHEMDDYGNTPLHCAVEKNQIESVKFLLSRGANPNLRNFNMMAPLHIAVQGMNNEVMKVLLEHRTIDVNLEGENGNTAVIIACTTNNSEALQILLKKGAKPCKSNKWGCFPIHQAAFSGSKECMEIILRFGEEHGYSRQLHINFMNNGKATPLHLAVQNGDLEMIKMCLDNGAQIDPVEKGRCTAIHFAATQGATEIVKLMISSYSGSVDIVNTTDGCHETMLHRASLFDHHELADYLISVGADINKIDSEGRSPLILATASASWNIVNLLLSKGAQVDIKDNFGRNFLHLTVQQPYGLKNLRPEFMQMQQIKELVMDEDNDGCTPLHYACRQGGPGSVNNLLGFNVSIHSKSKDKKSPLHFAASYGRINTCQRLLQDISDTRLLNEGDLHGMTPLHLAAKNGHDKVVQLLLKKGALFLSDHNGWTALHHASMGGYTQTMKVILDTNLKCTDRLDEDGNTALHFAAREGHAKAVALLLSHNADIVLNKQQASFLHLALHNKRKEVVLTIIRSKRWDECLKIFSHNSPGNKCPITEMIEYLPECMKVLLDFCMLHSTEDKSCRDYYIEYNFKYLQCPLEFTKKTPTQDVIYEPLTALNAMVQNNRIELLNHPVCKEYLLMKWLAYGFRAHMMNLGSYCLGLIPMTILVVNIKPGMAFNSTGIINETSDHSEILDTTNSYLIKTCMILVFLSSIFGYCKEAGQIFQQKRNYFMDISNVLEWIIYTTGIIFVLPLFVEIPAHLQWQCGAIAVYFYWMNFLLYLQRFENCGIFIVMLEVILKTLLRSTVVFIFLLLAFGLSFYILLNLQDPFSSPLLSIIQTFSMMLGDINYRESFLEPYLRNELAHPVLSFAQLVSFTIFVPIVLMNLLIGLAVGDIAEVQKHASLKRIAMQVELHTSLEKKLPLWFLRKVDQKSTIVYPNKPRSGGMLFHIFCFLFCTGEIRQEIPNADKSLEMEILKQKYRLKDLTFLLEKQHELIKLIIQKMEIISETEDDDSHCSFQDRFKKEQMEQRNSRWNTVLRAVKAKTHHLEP

TRPA1 Inhibition (% of control) ([1]; 10 µM) | TRPA1 Inhibition (% of control) ([1]; 50 µM) | Compound | size of collagen gel lattices (TGF-β1-induced contraction) [2] | number of myofibroblasts (MRC-5 with α-SMA-positive stress fibers); fibroblast to myofibroblast transition [3] | increase in average Ca2+ response area over baseline ([4]; 10 µM, acute application) | Ca2+ responses under TRPA1 inhibition by HC-030031 ([4]; 145 10 µM in the presence of HC-030031 10 µM) | Protein kinase A activity in TGF-β1-induced fibroblasts [5] | effect on Ca2+ influx in lung fibroblasts ([4]; 10 µM, acute application)
12.4 % of control | 8.8 % of control | Cn1c(=O)c2c(nc(NCc3ccco3)n2CCCC(=O)NN=Cc2ccc(O)cc2O)n(C)c1=O [Compound 832, N′-(2,4-dihydroxybenzylidene)-4-(8-((furan-2-ylmethyl)amino)-1,3-dimethyl-2,6-dioxo-1,2,3,6-tetrahydro-7H-purin-7-yl)butanehydrazide] | increased only slightly | decreased | two-fold | – | slightly lower | –
74.9 % of control | 98.7 % of control | COc1nc2c(c(=O)n(C)c(=O)n2C)n1CC(=O)Nc1ccc(C(C)(C)C)cc1 [Compound 869, N-(4-(tert-butyl)phenyl)-2-(8-methoxy-1,3-dimethyl-2,6-dioxo-1,2,3,6-tetrahydro-7H-purin-7-yl)acetamide] | increased only slightly | decreased | – | – | no significant change | inhibited Ca^2+ influx
– | – | CC(C)Cn1c(=O)n(C)c(=O)c2[nH]cnc21 [IBMX, 3-isobutyl-1-methyl-3,7-dihydro-1H-purine-2,6-dione, reference compound] | restored the size of collagen gel lattices to that of the untreated control | – | – | – | slightly lower | –

Compound | TRPA1 Inhibition (% of control) ([1]; 10 µM) | TRPA1 Inhibition (% of control) ([1]; 50 µM) | size of collagen gel lattices (TGF-β1-induced contraction) [2] | number of myofibroblasts (MRC-5 with α-SMA-positive stress fibers); fibroblast to myofibroblast transition [3] | increase in average Ca2+ response area over baseline ([4]; 10 µM, acute application) | Ca2+ responses under TRPA1 inhibition by HC-030031 ([4]; 145 10 µM in the presence of HC-030031 10 µM) | Protein kinase A activity in TGF-β1-induced fibroblasts [5] | effect on Ca2+ influx in lung fibroblasts ([4]; 10 µM, acute application)
CCCCOc1nc2c(c(=O)n(C)c(=O)n2C)n1CCCC(=O)Nc1cc(C(C)(C)C)ccc1O [Compound 145, 4-(8-butoxy-1,3-dimethyl-2,6-dioxo-1,2,3,6-tetrahydro-7H-purin-7-yl)-N-(5-(tert-butyl)-2-hydroxyphenyl)butanamide] | 12.3 % of control | 4.8 % of control | restored the size of collagen gel lattices to that of the untreated control | the most significant decrease | four-fold | failed to induce Ca^2+ responses | slightly lower | –

— publication PMC7312375, “A Novel, Pan-PDE Inhibitor Exerts Anti-Fibrotic Effects in Human Lung Fibroblasts via Inhibition of TGF-β Signaling and Activation of cAMP/PKA Signaling” (International Journal of Molecular Sciences, 2020)
